Legend:
[1] = target: T1, KRAS G12C (SEQ ID NO:1 or SEQ ID NO:2) (Homo sapiens, UniProt P01116, G12C); assay: Intact mass analysis (LC-MS) of covalent modification, KRAS G12C; assay type: binding; parameters: key to KRAS G12C Modification: b: KRAS G12C modified; settings: intact mass spectrometry; covalent modification of KRAS G12C FL
T1 construct: purchased
How it was run: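 Protein (2 μM) reacted with compound (100 μM) for 24 h at 25° C in 20 mM HEPES pH 8, 150 mM NaCl, 2% DMSO, 2% glycerol, then analysed by intact-mass LC-MS (C4 column, positive-ion TOF). Up to 8 cysteine adducts allowed on deconvolution; adducts <2% of base peak ignored. % modification = adduct intensity over total protein plus adduct intensities.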

[2] = test system: phospho-ERK1/2 in MIA PaCa-2 cells (express KRAS G12C); assay: ERK1/2 phosphorylation in MIA PaCa-2 cells; assay type: cell-based, human; parameters: key: X: KRAS G12C bound and modulated in cells

T1 sequence (P01116 with tags, fused parts or gaps isoform P01116-2 G12C): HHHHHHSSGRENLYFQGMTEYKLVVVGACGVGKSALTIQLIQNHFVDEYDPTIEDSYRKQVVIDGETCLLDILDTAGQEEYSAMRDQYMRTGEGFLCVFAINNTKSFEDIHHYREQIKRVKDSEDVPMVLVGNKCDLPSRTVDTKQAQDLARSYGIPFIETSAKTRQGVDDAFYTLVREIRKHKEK

KRAS G12C Modification [1] | SMILES | pERK - MIA PaCa-2 - (6 hours, 5 uM) [2]
b | Cc1ccnc(C(C)C)c1-n1c(=O)nc(NC2CN(S(=O)(=O)c3c(F)c(F)c(F)c(F)c3C(F)(F)F)C2)c2cc(F)c(-c3c(O)cccc3F)nc21 [Compound 15A, 6-fluoro-7-(2-fluoro-6-hydroxyphenyl)-1-(2-isopropyl-4-methylpyridin-3-yl)-4-((1-((2,3,4,5-tetrafluoro-6-(trifluoromethyl)phenyl)sulfonyl)azetidin-3-yl)amino)pyrido[2,3-d]pyrimidin-2(1H)-one] | X
b | Cc1ccnc(C(C)C)c1-n1c(=O)nc(NC2CN(S(=O)(=O)c3c(F)c(F)c(F)c(F)c3C(F)(F)F)C2)c2cc(F)c(Cl)nc21 [Compound 14A, 7-chloro-6-fluoro-1-(2-isopropyl-4-methylpyridin-3-yl)-4-((1-((2,3,4,5-tetrafluoro-6-(trifluoromethyl)phenyl)sulfonyl)azetidin-3-yl)amino)pyrido[2,3-d]pyrimidin-2(1H)-one] | X
